# According to US20230372331A1, “PHARMACEUTICAL COMPOSITION” (ANXO PHARMACEUTICAL CO., LTD., priority 2022, published 2023):
# Counter-ions that a name gives are not always drawn.
# Assay: Solubility of cariprazine forms in acetate medium
# Format: physicochemical
# Description: Different drug solubilities of cariprazine HCl and cariprazine base could be the reason to affect the release of cariprazine in the pharmaceutical compositions. […] The release profile of cariprazine in pharmaceutical composition with combo cariprazine base and cariprazine HCl were between pharmaceutical compositions B-752H-TF8-N and C-752H-TF8-N.
smiles,measurement,value
"CN(C)C(=O)N[C@H]1CC[C@H](CCN2CCN(c3cccc(Cl)c3Cl)CC2)CC1 [Cariprazine HCl, cariprazine HCl]",solubility in acetate medium (in words),higher solubility in acetate medium than cariprazine base
